Legend:
Assay type in all cases: cell-based
[1] = test system: NCI-H2170 HER2 YVMA cells; experiment: Tumor cell line proliferation assay, NCI-H2170 HER2 YVMA, CellTiter-Glo; details: Homo sapiens, 72 h, read-out: GI50 NCI H-2170 HER2 YVMA
Description: HER2 YVMA Tumor Cell Line Model Generation and Proliferation Assays
Homology-directed genome engineering is employed to insert a 12 nucleotide sequence encoding YVMA into Exon 20 of the genomic HER2 locus in NCI-H2170 cells. […] The DNA template containing the HER2 exon 20 YVMA insertion variant was obtained from GenScript. PCR followed by Sanger sequencing is used to confirm the presence of the 12-nucleotide insertion in HER2 Exon 20 resulting in the YVMA amino acid duplication.
(§1) For proliferation assays, NCI-H2170 (HER2 wild type), NCI-H2170 HER2 YVMA and EGFR WT dependent A431 cells are used. NCI-H2170 HER2 YVMA or NCI-H2170 cells are seeded into 96-well plates at 750 cells/60 μL in growth media (RPMI ATCC+10% FCS, +Penicillin/Streptomycin). […] Compounds are added by using a HP D3000 Digital Dispenser one day after plating the cells. All treatments are performed in technical triplicates. Treated cells are incubated for 72 h at 37° C. with 5% CO2. CellTiter-Glo® Luminescent Cell Viability Assay (Promega) is performed and chemoluminescence is measured by using the multilabel Plate Reader VICTOR X4. The raw data are imported into and analyzed with the Boehringer Ingelheim proprietary software MegaLab (curve fitting based on the program PRISM, GraphPad Inc.).

[2] = test system: Ba/F3 cells expressing EGFR WT; experiment: Ba/F3 proliferation assay, EGFR WT (EGF dependent), CellTiter-Glo; details: Mus musculus, BaF3, EGF instead of IL-3, 72 h, read-out: GI50 BAF3 EGF dep.
Procedure: (§2) Ba/F3 Cell Model Generation and Proliferation Assays
(§3) Plasmids containing HER2 mutants and EGFR WT were obtained from GeneScript. To generate EGFR/HER2-dependent Ba/F3 models, Ba/F3 cells are transduced with retroviruses containing vectors that harbor EGFR WT, HER2 WT or HER2 mutants (YVMA). Platinum-E cells (Cell Biolabs) are used for retrovirus packaging. Retrovirus is added to Ba/F3 cells. To ensure infection, 4 μg/mL polybrene is added and cells are spin-infected. Infection efficiency is confirmed by measuring GFP-positive cells using a cell analyzer. Cells with an infection efficiency of 10% to 20% are further cultivated and puromycin selection with 1 μg/mL is initiated. As a control, parental Ba/F3 cells are used to assess the selection status. Selection is considered successful when parental Ba/F3 cells cultures die. To evaluate the transforming potential of HER2 mutations, the growth medium is no longer supplemented with IL-3. Ba/F3 cells harboring the empty vector are used as a control. A switch from IL-3 to EGF is performed for Ba/F3 cells expressing EGFR WT known for its dependency on EGF ligand. Approximately ten days before conducting the experiments, puromycin is left out. For proliferation assays (data in tables 10 and 12), Ba/F3 cells are seeded into 96-well plates at 5×10^3 cells/100 μL in growth media. Compounds are added by using a HP D3000 Digital Dispenser. All treatments are performed in technical triplicates. Treated cells are incubated for 72 h at 37° C. with 5% CO2. A CellTiter-Glo® Luminescent Cell Viability Assay (Promega) is performed and chemoluminescence is measured by using the multilabel Plate Reader VICTOR X4. The raw data are imported into and analyzed with the Boehringer Ingelheim proprietary software MegaLab (curve fitting based on the program PRISM, GraphPad Inc.).

[3] = test system: NCI-H2170 (HER2 wild type) cells; experiment: Tumor cell line proliferation assay, NCI-H2170 (HER2 wild type), CellTiter-Glo; details: Homo sapiens, 72 h, read-out: GI50 NCI H-2170 HER2 wt amp.
Procedure: as §1

HER2 YVMA = target: T1, HER2 YVMA (Homo sapiens, UniProt P04626, INS775YVMA); experiment: pHER2 (ERBB2) YVMA assay: phosphorylation of HER2 YVMA at Tyr1221/1222 in HEK cells (AlphaScreen Surefire); details: doxycycline induced, 4 h with compound
T1 construct: expressed in transfected cells; host or cells: human HEK cells, retroviral transduction, doxycycline-inducible expression
T1 sequence (P04626 with tags, fused parts or gaps INS775YVMA): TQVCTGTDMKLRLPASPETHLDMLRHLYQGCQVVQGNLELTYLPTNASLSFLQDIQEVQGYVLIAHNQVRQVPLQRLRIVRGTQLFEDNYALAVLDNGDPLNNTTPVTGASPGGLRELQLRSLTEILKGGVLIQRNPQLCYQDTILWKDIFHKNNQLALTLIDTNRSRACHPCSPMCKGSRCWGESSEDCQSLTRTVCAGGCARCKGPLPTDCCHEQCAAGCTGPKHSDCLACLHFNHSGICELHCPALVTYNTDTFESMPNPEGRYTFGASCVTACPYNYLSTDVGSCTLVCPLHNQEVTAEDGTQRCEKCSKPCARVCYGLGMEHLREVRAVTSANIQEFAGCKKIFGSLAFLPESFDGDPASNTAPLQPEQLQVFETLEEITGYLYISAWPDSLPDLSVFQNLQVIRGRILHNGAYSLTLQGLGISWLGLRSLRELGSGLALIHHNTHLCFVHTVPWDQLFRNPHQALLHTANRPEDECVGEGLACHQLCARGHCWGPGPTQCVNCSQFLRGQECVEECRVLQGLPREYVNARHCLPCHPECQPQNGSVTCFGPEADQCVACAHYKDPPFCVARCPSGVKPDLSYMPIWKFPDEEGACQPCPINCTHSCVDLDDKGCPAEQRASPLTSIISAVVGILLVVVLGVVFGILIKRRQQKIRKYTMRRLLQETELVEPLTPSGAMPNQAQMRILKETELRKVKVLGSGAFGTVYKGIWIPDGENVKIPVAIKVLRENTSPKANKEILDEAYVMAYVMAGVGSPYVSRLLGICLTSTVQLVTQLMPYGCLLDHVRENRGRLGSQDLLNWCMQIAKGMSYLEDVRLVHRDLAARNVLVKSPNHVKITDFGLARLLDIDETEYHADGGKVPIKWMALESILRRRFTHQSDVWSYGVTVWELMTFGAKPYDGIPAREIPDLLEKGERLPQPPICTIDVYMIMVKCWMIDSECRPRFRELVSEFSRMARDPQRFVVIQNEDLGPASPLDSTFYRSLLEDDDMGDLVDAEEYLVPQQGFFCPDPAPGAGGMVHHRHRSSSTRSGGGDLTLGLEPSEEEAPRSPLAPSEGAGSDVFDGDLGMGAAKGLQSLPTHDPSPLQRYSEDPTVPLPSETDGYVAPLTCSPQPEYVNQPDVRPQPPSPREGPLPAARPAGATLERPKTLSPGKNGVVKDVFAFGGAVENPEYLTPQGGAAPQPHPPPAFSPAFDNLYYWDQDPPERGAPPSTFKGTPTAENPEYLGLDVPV
Procedure: For the assay, HEK HER2 YVMA cells are seeded in MEM medium with 10% FBS. 4 hours prior to compound addition, HER2 YVMA expression is induced using 1 μg/mL Doxycycline. […] Subsequently, 60.000 cells/well in 60 μL are added. Cells are incubated with compound for 4 h at 37° C. […] The mixture is incubated at a temperature of 20-25° C. with shaking (700 rpm) for 20 min. After centrifugation, 4 μL of the lysate are transferred to Proxiplates. […] Plates are shaken for 1 min (1400 rpm) and incubated for 2 h at a temperature of 20-25° C. in the dark. […] Plates are shaken for 1 min (1400 rpm) and incubated for 2 h at a temperature of 20-25° C. in the dark. Plates are subsequently analyzed using an Envision reader platform. […] IC50 values are computed from these values in the MEGASTAR IC50 application using a 4 parametric logistic model. […] The results of the assay are provided as IC50 values.

Ba/F3 cells HER2 WT = experiment: Ba/F3 proliferation assay, HER2 WT, CellTiter-Glo; details: Mus musculus, BaF3, 72 h
Procedure: as §2, §3

EGFR wild type (WT) = target: T2, EGFR wild type (WT) (Homo sapiens, UniProt P00533); experiment: pEGFR assay: phosphorylation of EGFR at Tyr1068 in HEK cells expressing EGFR WT (AlphaScreen Surefire); details: 4 h with compound
T2 construct: expressed in transfected cells; host or cells: human HEK cells (ATCC CRL-1573), retroviral transduction
T2 sequence (P00533 25-1210): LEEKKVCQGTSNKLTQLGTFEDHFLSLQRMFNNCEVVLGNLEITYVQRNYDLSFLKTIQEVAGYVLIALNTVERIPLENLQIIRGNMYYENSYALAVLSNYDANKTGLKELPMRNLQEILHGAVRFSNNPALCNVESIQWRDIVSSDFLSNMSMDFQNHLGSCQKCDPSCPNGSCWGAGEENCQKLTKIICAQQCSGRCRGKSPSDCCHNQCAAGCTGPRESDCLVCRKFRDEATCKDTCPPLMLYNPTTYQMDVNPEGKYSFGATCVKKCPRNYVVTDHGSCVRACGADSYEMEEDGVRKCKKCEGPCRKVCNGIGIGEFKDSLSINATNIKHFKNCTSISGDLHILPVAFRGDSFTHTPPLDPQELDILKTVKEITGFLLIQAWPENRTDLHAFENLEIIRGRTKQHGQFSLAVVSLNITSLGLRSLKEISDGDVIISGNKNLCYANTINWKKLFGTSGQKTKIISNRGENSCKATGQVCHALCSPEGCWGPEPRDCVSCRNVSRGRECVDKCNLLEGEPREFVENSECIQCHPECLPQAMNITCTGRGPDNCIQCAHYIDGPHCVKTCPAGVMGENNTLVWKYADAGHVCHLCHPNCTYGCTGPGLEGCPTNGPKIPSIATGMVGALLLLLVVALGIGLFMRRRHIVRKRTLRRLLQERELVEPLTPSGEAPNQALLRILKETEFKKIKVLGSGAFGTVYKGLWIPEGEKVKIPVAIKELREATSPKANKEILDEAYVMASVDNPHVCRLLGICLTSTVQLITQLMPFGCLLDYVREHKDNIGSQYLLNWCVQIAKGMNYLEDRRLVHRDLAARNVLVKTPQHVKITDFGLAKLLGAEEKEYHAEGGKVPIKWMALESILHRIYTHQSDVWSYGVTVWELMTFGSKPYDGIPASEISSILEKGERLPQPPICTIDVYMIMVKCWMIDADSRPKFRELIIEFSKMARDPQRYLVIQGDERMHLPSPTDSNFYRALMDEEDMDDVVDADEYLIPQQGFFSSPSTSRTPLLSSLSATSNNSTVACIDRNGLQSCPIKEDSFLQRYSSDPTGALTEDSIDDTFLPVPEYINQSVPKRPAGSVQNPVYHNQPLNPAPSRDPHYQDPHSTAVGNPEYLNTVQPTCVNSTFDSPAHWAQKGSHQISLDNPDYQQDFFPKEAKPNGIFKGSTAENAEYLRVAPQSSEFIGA
Procedure: This assay quantifies the phosphorylation of EGFR at Tyr1068 and is used to measure the inhibitory effect of compounds on the transgenic EGFR wild type (WT) protein expressed in HEK cells.
Transduced cells are selected using puromycin. p-EGFR Tyr1068 is determined using the AlphaScreen Surefire pEGF Receptor (Tyr1068) Assay (PerkinElmer, TGRERS). For the assay, HEK EGFR WT cells are seeded in MEM medium with 10% FBS. […] Subsequently, 60.000 cells/well in 60 μL are added. Cells are incubated with compound for 4 h at 37° C. […] The mixture is incubated at a temperature of 20-25° C. with shaking (700 rpm) for 20 min. After centrifugation, 4 μL of the lysate are transferred to Proxiplates. […] Plates are shaken for 1 min (1400 rpm) and incubated for 2 h at a temperature of (20-25° C.) in the dark. […] Plates are shaken for 1 min (1400 rpm) and incubated for 2 h at a temperature of (20-25° C.) in the dark. Plates are subsequently analyzed using an Envision reader platform. […] IC50 values are computed from these values in the MEGASTAR IC50 application using a 4 parametric logistic model.
This cellular phospho-EGFR (pEGFR) compound dose-response assay quantifies the phosphorylation of EGFR at Tyr1068 in HEK cells expressing EGFR WT. The results of the assay are provided as IC50 values.

[4] = test system: EGFR WT dependent A431 cells; experiment: Tumor cell line proliferation assay, EGFR WT dependent A431 cells, CellTiter-Glo; details: Homo sapiens, A-431, 72 h, read-out: GI50 A431 EGFR wt amp.
Procedure: as §1

[5] = test system: Ba/F3 cells HER2 mutants (YVMA); experiment: Ba/F3 proliferation assay, HER2 YVMA, CellTiter-Glo; details: Mus musculus, BaF3, 72 h
Procedure: as §2, §3

Row | SMILES | GI50 [1] [nM] | GI50 [2] [nM] | GI50 [3] [nM] | IC50 (HER2 YVMA) [nM] | GI50 (Ba/F3 cells HER2 WT) [nM] | IC50 (EGFR wild type (WT)) [nM] | GI50 [4] [nM] | GI50 [5] [nM]
1 | C=CC(=O)N1CC[C@H](Nc2ncc3ncnc(Nc4ccc(Oc5ccn6ncnc6c5)c(C)c4)c3n2)C1 [Example I-17] | 39 | 1100 | 9 | 2 | 2 | 94 | > 2000 | 14
2 | C=CC(=O)N1CCC[C@@H](n2nc(-c3ccc(Oc4ccccc4)cc3)c3c(N)ncnc32)C1 [Ibrutinib, reference compound] | 132 | 70 | 16 |  |  |  | 199 | 44
3 | C=CC(=O)N1CC(Nc2ncc3ncnc(Nc4ccc(Oc5ccn6ncnc6c5)c(C)c4)c3n2)C1 [Example I-19] | 34 | 206 | 8 | 8 | 2 | 41 | 752 | 11
4 | C=CC(=O)NC1CN(c2ncc3ncnc(Nc4ccc(Oc5ccc6c(c5)ncn6C)c(C)c4)c3n2)C1 [Example I-07] | 73 | 1500 | 17 | 20 | 3 | 1170 | > 5000 | 42
5 | C=CC(=O)Nc1cccc(-n2c(=O)c(Oc3ccc(F)cc3F)cc3cnc(Nc4cnn(C)c4)nc32)c1 [WO 2019/046775 Comp. 2, reference compound] | 34 | 13 | 22 | 11 | 3 | 7 | 16 | 14
6 | C=CC(=O)NC1CCN(c2ncc3ncnc(Nc4ccc(Oc5ccc6c(c5)ncn6C)c(OC)c4)c3n2)CC1 [Example I-03] | 139 | > 5000 | 11 | 20 | 2 | 916 | > 5000 | 38
7 | C=CC(=O)N1CCC(Oc2cc3c(Nc4ccc(Cl)c(Cl)c4F)ncnc3cc2OC)CC1 [Poziotinib, reference compound] | 5 | 1 | 1 | 5 | 1 |  | 1 | 2
8 | C=CC(=O)N1CC[C@@H](Nc2ncc3ncnc(Nc4ccc(Oc5ccn6ncnc6c5)c(C)c4)c3n2)C1 [Example I-18] | 87 | 3270 | 10 | 4 |  | 137 | > 2000 | 29
9 | C=CC(=O)NC1CCN(c2ncc3ncnc(Nc4ccc(Oc5ccc6c(c5)ncn6C)c(C)c4)c3n2)CC1 [Example I-01] | 33 | 1540 | 6 | 13 | 1 |  | > 5000 | 16
10 | C=CC(=O)NC1CCN(c2ncc3ncnc(Nc4cc(F)c(Oc5ccn6ncnc6c5)c(Cl)c4)c3n2)CC1 [Example I-06] | 215 | > 5000 | 12 | 44 | 1 | 773 | > 5000 | 31
11 | C#Cc1cc(Nc2ncnc3cnc(NC4CCN(C(=O)C=C)CC4)nc23)ccc1Oc1ccc2c(c1)ncn2C [Example I-15] | 44 | 425 | 13 | 12 | 2 | 86 | 948 | 18
12 | Cc1cc(Nc2ncnc3ccc(NC4=NC(C)(C)CO4)cc23)ccc1Oc1ccn2ncnc2c1 [Tucatinib, reference compound] | 798 | 2970 | 58 | 4 | 10 | 1410 | 4220 | 338
13 | C=CC(=O)NC1(C)CCN(c2ncc3ncnc(Nc4ccc(Oc5ccc6c(c5)ncn6C)c(OC)c4)c3n2)CC1 [Example I-04] | 99 | > 5000 | 12 | 26 | 3 | 495 | > 5000 | 32
14 | C#Cc1cc(Nc2ncnc3cnc(N4CCC(NC(=O)C=C)CC4)nc23)ccc1Oc1ccc2c(c1)ncn2C [Example I-02] | 228 | 3010 | 13 | 34 | 1 | 628 | > 5000 | 37
15 | CCOc1cc2ncc(C#N)c(Nc3ccc(OCc4ccccn4)c(Cl)c3)c2cc1NC(=O)/C=C/CN(C)C [Neratinib, reference compound] | 37 | 14 | 3 |  |  |  | 55 | 5
16 | C=CC(=O)Nc1ccc2ncnc(Nc3ccc(Oc4ccc5c(c4)ncn5C)c(C)c3)c2c1 [WO 2007/059257 Ex. 185, reference compound] | 926 | 1190 | 108 | 33 |  | 317 | > 5000 | 60
17 | C=CC(=O)Nc1ccc2ncnc(Nc3ccc(OCc4cccc(F)c4)c(Cl)c3)c2c1 [Allitinib, reference compound] | 203 | 31 | 36 | 3 |  | 1 | 403 | 17

Source: patent US11608343B2, “Substituted pyrimido[5,4-d]pyrimidines as HER2 inhibitors” (Boehringer Ingelheim International GmbH, priority 2020, dated 2023)
